Four compounds from article PMC3914206 can be followed below.

Assay type in all cases: binding
Assay [1] addresses T1, panel of 442 kinases (Homo sapiens, UniProt Q08345).
T1 construct: purchased KINOMEscan
As to conditions: Compound Concentration 10 µM. An excerpt:
We assessed the selectivity of members of this scaffold using the KINOMEscan methodology across a near comprehensive panel of 442 kinases [[18,27]].

For assay [2], the target named is T2, selected panels of kinases in HeLa and PC3 cell lysates (Homo sapiens, UniProt P29317).
T2 construct: endogenous in cells; host or cells: HeLa and PC3 cell lysates
Put plainly: KiNativ chemical proteomics profiling in HeLa and PC3 cell lysates. As to conditions: 10 uM, proteome PC3.

The target of assay [3] is T3, selected panels of kinases in HeLa and PC3 cell lysates (Homo sapiens, UniProt O96017).
T3 construct: endogenous in cells; host or cells: HeLa and PC3 cell lysates
The assay is described as above. As to conditions: 10 uM.

Assay [4] addresses T4, selected panels of kinases in HeLa and PC3 cell lysates (Homo sapiens, UniProt P23743).
T4 construct: endogenous in cells; host or cells: HeLa and PC3 cell lysates
The assay is described as above. As to conditions: 10 uM; proteome HEL; peptide […]kSGGK; labeling site ATP.

The target in assay [5] is T5, selected panels of kinases in HeLa and PC3 cell lysates (Homo sapiens, UniProt Q04912).
T5 construct: endogenous in cells; host or cells: HeLa and PC3 cell lysates
The assay is described as above. As to conditions: 10 uM; RON; peptide IQCAIkSLSR; proteome PC3; labeling site Lys1.

Assay [6] concerns the target T6, selected panels of kinases in HeLa and PC3 cell lysates (Homo sapiens, UniProt O75460).
T6 construct: endogenous in cells; host or cells: HeLa and PC3 cell lysates
Described as above. As to conditions: 10 uM; proteome HEL; peptide DLk[…]; labeling site Lys2.

The target of assay [7] is T7, selected panels of kinases in HeLa and PC3 cell lysates (Homo sapiens, UniProt P15056).
T7 construct: endogenous in cells; host or cells: HeLa and PC3 cell lysates
The description is as above. As to conditions: 10 uM; proteome HEL; peptide DLk[…]; labeling site Lys2.

In assay [8] the target is T8, selected panels of kinases in HeLa and PC3 cell lysates (Homo sapiens, UniProt Q13535).
T8 construct: endogenous in cells; host or cells: HeLa and PC3 cell lysates
Described as above. As to conditions: 10 uM, peptide FYIMMCkPK, labeling site ATP.

The target in assay [9] is T9, selected panels of kinases in HeLa and PC3 cell lysates (Homo sapiens, UniProt P27361).
T9 construct: endogenous in cells; host or cells: HeLa and PC3 cell lysates
Described as above. As to conditions: 10 uM, peptide DLk[…], labeling site Lys2.

In assay [10] the target is T10, selected panels of kinases in HeLa and PC3 cell lysates (Homo sapiens, UniProt Q12851).
T10 construct: endogenous in cells; host or cells: HeLa and PC3 cell lysates
Described as above. As to conditions: 10 uM; proteome HEL; peptide […]kIVK; labeling site Lys1.

For assay [11], the target named is T11, selected panels of kinases in HeLa and PC3 cell lysates (Homo sapiens, UniProt O14757).
T11 construct: endogenous in cells; host or cells: HeLa and PC3 cell lysates
Described as above. As to conditions: 10 uM; proteome HEL; peptide DIkPENLLLDER; labeling site Lys2.

Assay [12] concerns the target T12, selected panels of kinases in HeLa and PC3 cell lysates (Homo sapiens, UniProt Q15831).
T12 construct: endogenous in cells; host or cells: HeLa and PC3 cell lysates
T12 sequence (Q15831 1-433): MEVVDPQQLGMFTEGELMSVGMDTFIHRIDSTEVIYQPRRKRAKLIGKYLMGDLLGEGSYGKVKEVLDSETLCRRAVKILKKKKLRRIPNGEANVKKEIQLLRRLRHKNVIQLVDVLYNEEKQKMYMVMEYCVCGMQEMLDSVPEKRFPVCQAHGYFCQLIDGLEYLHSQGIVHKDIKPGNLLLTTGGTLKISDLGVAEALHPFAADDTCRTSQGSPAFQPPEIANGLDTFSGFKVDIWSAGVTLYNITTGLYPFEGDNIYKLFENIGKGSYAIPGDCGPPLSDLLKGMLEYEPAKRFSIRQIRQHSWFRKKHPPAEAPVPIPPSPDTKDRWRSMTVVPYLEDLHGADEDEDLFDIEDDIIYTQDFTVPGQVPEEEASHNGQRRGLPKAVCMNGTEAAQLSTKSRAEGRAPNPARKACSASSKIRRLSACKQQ
The assay is described as above. As to conditions: 10 uM, peptide DIk[…], labeling site Lys2.

For assay [13], the target named is T13, selected panels of kinases in HeLa and PC3 cell lysates (Homo sapiens, UniProt Q13464).
T13 construct: endogenous in cells; host or cells: HeLa and PC3 cell lysates
Described as above. As to conditions: 10 uM; ROCK1; peptide kLQLELNQER; proteome PC3; labeling site Other.

The target in assay [14] is T14, selected panels of kinases in HeLa and PC3 cell lysates (Homo sapiens, UniProt Q15759).
T14 construct: endogenous in cells; host or cells: HeLa and PC3 cell lysates
Described as above. As to conditions: 10 uM; proteome PC3; peptide QELNkTVWEVPQR; labeling site Other.

Assay [15] deals with T15, selected panels of kinases in HeLa and PC3 cell lysates (Homo sapiens, UniProt Q8IU85).
T15 construct: endogenous in cells; host or cells: HeLa and PC3 cell lysates
The description is as above. As to conditions: 10 uM; proteome HEL; peptide LFAVkCIPK; labeling site Lys1.

The target of assay [16] is T16, selected panels of kinases in HeLa and PC3 cell lysates (Homo sapiens, UniProt Q96GD4).
T16 construct: endogenous in cells; host or cells: HeLa and PC3 cell lysates
Described as above. As to conditions: 10 uM; proteome HEL; peptide SHFIVALkVLFK; labeling site Lys1.

The target of assay [17] is T17, selected panels of kinases in HeLa and PC3 cell lysates (Homo sapiens, UniProt P21709).
T17 construct: endogenous in cells; host or cells: HeLa and PC3 cell lysates
The assay is described as above. As to conditions: 10 uM; proteome PC3; peptide […]kIPIR; labeling site Activation Loop.

Where [18] appears, read: peptide EVPVAIkTLK, labeling site Lys1.
[19] abbreviates: peptide […]kIPIR, labeling site Activation Loop.
Where [20] appears, read: proteome HEL, peptide DLk[…], labeling site Lys2.
[21] abbreviates: proteome PC3, peptide DLk[…], labeling site Lys2.
Setting [22] is: proteome PC3, peptide VAIkIISK, labeling site Lys1.

T9 sequence (P27361 whole entry): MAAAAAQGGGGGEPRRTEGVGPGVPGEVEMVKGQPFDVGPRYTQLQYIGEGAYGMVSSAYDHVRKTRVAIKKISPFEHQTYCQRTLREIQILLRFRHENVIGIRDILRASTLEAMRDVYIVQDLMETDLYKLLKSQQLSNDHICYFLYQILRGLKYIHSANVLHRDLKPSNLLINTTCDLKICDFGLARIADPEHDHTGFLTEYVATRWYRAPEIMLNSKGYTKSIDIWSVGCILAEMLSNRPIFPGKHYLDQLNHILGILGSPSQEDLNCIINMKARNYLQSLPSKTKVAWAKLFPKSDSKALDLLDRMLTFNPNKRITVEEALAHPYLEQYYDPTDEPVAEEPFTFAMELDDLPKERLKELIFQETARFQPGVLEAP
T8 sequence (Q13535 whole entry): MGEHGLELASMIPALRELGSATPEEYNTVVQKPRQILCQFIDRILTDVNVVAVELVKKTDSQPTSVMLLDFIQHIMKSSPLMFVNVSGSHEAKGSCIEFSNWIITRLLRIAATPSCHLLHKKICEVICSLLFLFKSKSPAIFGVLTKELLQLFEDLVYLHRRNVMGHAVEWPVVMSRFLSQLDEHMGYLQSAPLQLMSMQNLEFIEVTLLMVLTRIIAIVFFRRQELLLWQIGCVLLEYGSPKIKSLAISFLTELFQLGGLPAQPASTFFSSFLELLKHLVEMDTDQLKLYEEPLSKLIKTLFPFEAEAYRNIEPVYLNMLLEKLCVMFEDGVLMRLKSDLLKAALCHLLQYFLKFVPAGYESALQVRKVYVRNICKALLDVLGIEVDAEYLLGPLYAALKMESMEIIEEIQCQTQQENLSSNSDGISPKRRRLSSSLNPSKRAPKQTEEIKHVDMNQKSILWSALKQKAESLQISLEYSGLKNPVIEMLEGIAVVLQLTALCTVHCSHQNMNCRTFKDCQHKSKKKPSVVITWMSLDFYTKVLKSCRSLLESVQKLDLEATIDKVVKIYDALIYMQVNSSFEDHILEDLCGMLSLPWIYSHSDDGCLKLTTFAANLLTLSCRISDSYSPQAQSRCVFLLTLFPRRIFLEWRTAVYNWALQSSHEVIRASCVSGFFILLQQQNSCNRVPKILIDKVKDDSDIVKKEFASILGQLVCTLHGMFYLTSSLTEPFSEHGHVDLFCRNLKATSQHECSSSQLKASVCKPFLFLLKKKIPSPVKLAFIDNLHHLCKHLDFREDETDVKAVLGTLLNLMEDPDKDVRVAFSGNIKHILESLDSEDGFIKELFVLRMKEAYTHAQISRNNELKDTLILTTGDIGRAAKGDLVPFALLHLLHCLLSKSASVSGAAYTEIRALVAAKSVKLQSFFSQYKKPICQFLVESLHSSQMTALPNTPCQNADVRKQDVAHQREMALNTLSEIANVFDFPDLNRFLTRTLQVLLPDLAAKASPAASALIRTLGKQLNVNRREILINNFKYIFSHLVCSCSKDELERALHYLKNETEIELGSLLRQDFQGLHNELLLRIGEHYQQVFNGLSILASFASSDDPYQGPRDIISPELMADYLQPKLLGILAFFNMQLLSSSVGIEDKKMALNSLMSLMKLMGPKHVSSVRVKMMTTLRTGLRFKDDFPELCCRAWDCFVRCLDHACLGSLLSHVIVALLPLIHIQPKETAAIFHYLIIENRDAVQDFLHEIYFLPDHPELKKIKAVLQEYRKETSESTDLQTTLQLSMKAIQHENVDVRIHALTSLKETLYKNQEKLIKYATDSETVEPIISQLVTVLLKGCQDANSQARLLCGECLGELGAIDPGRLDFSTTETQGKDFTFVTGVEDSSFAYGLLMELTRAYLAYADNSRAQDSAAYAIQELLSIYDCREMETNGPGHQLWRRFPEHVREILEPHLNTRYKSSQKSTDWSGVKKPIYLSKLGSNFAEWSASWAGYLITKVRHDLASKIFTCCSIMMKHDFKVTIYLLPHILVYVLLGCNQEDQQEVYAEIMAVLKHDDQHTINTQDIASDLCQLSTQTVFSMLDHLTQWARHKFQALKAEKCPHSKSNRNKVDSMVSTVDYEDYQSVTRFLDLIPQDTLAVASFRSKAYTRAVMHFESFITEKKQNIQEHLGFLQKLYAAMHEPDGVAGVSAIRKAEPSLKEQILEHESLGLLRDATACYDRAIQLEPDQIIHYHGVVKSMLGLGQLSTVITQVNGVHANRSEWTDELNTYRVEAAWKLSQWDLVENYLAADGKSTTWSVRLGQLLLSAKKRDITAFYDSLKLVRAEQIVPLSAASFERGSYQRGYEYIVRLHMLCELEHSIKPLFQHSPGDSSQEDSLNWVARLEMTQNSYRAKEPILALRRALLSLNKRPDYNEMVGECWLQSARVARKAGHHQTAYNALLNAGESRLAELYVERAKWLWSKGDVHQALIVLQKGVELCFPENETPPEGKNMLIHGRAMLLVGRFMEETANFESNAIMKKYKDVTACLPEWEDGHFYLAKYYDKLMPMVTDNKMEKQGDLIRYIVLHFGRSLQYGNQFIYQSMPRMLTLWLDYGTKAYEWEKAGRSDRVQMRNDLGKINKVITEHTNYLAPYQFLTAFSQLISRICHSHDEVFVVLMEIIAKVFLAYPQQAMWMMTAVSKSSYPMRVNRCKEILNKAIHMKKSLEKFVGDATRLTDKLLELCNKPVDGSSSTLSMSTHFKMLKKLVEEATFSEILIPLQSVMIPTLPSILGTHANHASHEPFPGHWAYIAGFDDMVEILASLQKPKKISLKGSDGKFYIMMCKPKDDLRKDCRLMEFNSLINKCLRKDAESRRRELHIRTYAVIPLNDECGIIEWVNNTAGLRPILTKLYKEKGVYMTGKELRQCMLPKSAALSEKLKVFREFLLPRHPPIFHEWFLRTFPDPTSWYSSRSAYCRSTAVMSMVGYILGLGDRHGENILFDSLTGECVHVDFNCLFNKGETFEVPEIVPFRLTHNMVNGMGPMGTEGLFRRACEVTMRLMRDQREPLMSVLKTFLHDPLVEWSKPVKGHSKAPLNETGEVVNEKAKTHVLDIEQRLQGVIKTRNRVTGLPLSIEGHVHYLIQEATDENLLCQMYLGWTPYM
T1 sequence (Q08345 19-913): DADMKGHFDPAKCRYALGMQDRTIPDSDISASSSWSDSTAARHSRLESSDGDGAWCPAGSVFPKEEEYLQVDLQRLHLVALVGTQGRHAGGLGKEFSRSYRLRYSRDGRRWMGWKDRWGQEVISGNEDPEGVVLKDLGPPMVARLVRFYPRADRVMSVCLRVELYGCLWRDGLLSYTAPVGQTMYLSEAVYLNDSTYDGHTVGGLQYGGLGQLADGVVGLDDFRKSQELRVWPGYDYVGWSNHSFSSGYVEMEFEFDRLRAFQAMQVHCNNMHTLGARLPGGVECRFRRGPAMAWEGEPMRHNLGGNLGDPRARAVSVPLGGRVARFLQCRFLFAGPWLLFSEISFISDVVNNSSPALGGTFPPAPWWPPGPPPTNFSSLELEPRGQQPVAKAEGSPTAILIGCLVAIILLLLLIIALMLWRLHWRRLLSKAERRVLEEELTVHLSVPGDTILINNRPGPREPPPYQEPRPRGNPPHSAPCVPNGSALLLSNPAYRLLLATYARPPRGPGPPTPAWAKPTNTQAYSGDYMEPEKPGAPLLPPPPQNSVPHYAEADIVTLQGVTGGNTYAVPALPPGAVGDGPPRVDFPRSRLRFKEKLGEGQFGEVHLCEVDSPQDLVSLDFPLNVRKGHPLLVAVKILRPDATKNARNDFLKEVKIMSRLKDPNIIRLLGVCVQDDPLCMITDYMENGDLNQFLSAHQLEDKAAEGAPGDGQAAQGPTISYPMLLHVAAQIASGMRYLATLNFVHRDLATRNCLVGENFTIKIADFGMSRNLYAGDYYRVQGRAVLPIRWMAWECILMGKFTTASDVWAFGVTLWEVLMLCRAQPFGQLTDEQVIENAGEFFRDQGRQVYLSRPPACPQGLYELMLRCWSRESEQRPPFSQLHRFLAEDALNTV
T2 sequence (P29317 24-976): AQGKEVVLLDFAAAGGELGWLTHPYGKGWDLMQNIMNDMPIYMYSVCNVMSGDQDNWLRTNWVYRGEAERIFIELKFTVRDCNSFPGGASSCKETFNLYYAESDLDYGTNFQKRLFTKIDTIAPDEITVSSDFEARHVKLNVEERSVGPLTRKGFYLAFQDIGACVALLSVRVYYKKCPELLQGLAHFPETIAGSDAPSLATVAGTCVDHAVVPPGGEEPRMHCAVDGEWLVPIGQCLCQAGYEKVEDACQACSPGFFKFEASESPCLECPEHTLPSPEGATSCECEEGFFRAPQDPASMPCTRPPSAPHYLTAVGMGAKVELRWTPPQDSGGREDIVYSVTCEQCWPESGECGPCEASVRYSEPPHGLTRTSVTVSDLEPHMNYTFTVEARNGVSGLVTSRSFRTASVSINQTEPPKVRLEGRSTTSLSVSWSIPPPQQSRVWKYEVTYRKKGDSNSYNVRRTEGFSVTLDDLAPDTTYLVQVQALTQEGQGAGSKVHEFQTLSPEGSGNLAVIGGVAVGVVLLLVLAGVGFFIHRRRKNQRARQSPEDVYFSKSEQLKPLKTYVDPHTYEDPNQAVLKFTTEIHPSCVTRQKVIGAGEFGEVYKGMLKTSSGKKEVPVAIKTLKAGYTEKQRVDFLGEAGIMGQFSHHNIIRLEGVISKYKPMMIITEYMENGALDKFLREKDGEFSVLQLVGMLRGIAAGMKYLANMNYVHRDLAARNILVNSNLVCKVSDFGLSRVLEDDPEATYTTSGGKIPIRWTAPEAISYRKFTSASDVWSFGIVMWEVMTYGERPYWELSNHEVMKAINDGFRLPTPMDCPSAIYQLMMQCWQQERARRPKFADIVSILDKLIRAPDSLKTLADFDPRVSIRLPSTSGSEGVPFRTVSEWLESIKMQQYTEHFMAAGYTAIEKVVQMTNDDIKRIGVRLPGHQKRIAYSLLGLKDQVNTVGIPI

Regarding `COc1cc(C(=O)N2CCC(N3CCN(C)CC3)CC2)ccc1Nc1ncc2c(n1)N(C)c1ccccc1C(=O)N2C` [15 (LRRK2-IN-1)], the “KINOMEscan: DDR1” value in assay [1] was 100.

With `COc1cc(C(=O)N2CCC(N3CCN(C)CC3)CC2)ccc1Nc1ncc2c(n1)N1CCc3cccc(c31)C(=O)N2C` [Compound 24], in assay [1], the “KINOMEscan: DDR1” value is 67.

`COc1cc(C(=O)N2CCC(N3CCN(C)CC3)CC2)ccc1Nc1ncc2c(n1)N(C1CCCC1)c1ccccc1C(=O)N2C` [Compound 25, 11-cyclopentyl-2-((2-methoxy-4-(4-(4-methylpiperazin-1-yl)piperidine-1-carbonyl)phenyl)amino)-5-methyl-5H-benzo[e]pyrimido[5,4-b][1,4]diazepin-6(11H)-one]: the “KINOMEscan: DDR1” value in assay [1] stood at 98. Also, the “% Inhibiton, EphA2” value in assay [2] (setting [18]) was -0.8%; in assay [2] (setting [19]), -2.3%. Moreover, the “% Inhibiton, CHK2” value in [3] (setting [20]) worked out at 15.6%; in assay [3] (setting [21]) it was 0.0283%; in [3] (setting [22]), 11.3%. Further, the “% Inhibiton, DGKA” value in assay [4] is 8.1%. The “% Inhibition RON” value in assay [5] is -17.5%. Besides, in [6], the “% Inhibiton, IRE1” value is reported as -1.8%. In addition, the “% Inhibiton, BRAF” value in [7] is -0.2%. In addition, the “% Inhibiton, ATR” value in [8] (proteome HEL) turned out to be 8.5%; in assay [8] (proteome PC3), 21.0%. Also, the “% Inhibiton, Erk1” value in assay [9] (proteome HEL) stood at 20.3%; in assay [9] (proteome PC3), 8.4%. Moreover, the “% Inhibiton, GCK” value in [10] is reported as -2.3%. Also, the “% Inhibiton, CHK1” value in assay [11] is listed as -12.3%. In addition, the “% Inhibiton, LKB1” value in assay [12] (proteome HEL) was -0.266%; in [12] (proteome PC3), -4.1%. For the same compound, the “% Inhibition ROCK1” value in assay [13] was -4.2%. In addition, the “% Inhibiton, p38b” value in assay [14] was found to be 14.5%. Besides, in assay [15], the “% Inhibiton, CaMK1d” value was 5.8%. Further, the “% Inhibiton, AurB” value in assay [16] amounted to 65.8%. In assay [17], the “% Inhibiton, EphA1” value is -1.8%.

Consider `CCOc1cc(C(=O)N2CCC(N3CCN(C)CC3)CC2)ccc1Nc1ncc2c(n1)N(C1CCCC1)c1ccccc1C(=O)N2C` [Compound 26], for which the “KINOMEscan: DDR1” value in [1] is 100. Further, the “% Inhibiton, EphA2” value is -1.4% in [2] (setting [18]) and -3% in assay [2] (setting [19]). Also, the “% Inhibiton, CHK2” value is reported as -18.8% in assay [3] (setting [20]), 14.1% in [3] (setting [21]) and 4.6% in assay [3] (setting [22]). Further, the “% Inhibiton, DGKA” value in assay [4] is given as 5.7%. Further, in assay [5], the “% Inhibition RON” value was determined as 11.1%. Further, the “% Inhibiton, IRE1” value in [6] was -19%. Moreover, the “% Inhibiton, BRAF” value in assay [7] came out at 8.6%. Besides, the entries for the “% Inhibiton, ATR” value in assay [8] (proteome HEL) and in assay [8] (proteome PC3) were -9.8% and -4.3%, respectively. The “% Inhibiton, Erk1” value in assay [9] (proteome HEL) is on record as -1.3%; in assay [9] (proteome PC3), -0.2%. Moreover, in assay [10], the “% Inhibiton, GCK” value is on record as 6.8%. Moreover, the “% Inhibiton, CHK1” value in [11] came out at 13.8%. Also, the “% Inhibiton, LKB1” value is given as 6.4% in assay [12] (proteome HEL) and -0.8% in [12] (proteome PC3). For the same compound, in assay [13], the “% Inhibition ROCK1” value was -8.1%. Also, the “% Inhibiton, p38b” value in [14] is recorded as 14.6%. Also, in assay [15], the “% Inhibiton, CaMK1d” value was determined as 19.9%. Besides, the “% Inhibiton, AurB” value in assay [16] was 42.5%. Also, the “% Inhibiton, EphA1” value in [17] is -0.1%.
